target: T1, human histamine H3 receptor (Homo sapiens, UniProt Q9Y5N1); assay: Competition radioligand binding assay with [125I]iodoproxyfan on membranes of RAGE-H3 (HT1080-Gqαi5) cells expressing human H3 receptor; details: ~0.15 nM [125I]iodoproxyfan, 1.5 hrs at room temperature, head does not name the quantity (apparent Ki by Cheng-Prussof)
T1 construct: endogenous in cells; host or cells: HT1080-Gqαi5 RAGE clone (RAGE-H3), human fibrosarcoma line; integrated RAGE vector pFG8-HH3 supplies exon 1, the cell's own gene supplies the other exons
T1 sequence (Q9Y5N1 whole entry): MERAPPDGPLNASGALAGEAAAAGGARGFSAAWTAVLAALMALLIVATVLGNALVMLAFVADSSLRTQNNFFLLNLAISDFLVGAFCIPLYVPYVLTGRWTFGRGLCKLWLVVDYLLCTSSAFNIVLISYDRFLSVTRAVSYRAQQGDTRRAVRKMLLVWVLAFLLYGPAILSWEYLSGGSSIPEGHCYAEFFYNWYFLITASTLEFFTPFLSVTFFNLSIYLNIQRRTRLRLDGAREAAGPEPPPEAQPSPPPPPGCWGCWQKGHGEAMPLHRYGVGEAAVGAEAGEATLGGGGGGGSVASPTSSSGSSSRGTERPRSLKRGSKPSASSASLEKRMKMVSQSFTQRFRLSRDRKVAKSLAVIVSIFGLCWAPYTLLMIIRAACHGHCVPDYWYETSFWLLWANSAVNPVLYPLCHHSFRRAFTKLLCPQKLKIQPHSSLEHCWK
Description: Representative compounds of the present invention that were prepared by the procedures of Examples 1-83 were evaluated in binding assays against cells expressing human H3 receptor by the following procedure.
[^125I]iodoproxyfan (2000 Ci/mmol) was obtained from Amersham Bioscience (Piscataway, N.J.). All other chemicals were either from Sigma-Aldrich (St. Louis, Mo.) or Tocris Cookson Inc. (Ellisville, Mo.).
The human histamine H3 receptor was stably expressed in HT1080 cells containing the chimeric G-protein, Gq[…]i5 (Coward et al., Anal Biochem 1999; 270:242-8). HT1080-Gqαi5 cells were grown in alpha-modified MEM containing 10% fetal bovine serum and 7 μg/ml blasticidin at 37° C. in 5% CO2/95% atmosphere. Cells (4.8×10^9) were irradiated with 50 rads from a ^137Cs source and the pFG8-HH3 RAGE (Random Activation of Gene Expression; see Harrington et al., Nature Biotechnology. 2001; 19:440-45) vector was subsequently integrated into the cells via electroporation (250V, 600 μF, 50Ω). The RAGE vector pFG8-HH3 contained cDNA sequence coding for the first exon (83 amino acids) of human H3 receptor. After electroporation, cells were plated in T75 flasks and grown in alpha-modified MEM. The culture medium was replaced 48 hrs after electroporation with alpha-modified MEM, 10% fetal bovine serum, 500 μg/ml hygromycin B and 3 μg/ml puromycin. Medium was replaced every four days during cell expansion. To identify RAGE activated cells expressing the H3 receptor, pools of approximately 10,000 colonies (5×10^7-1.5×10^8 cells total) were screened by PCR for the desired gene product (using primers specific to the RAGE vector and exon 2 of the H3 receptor). […] Positive 100 cells/well pools were identified by PCR, confirmed by sequencing, and subsequently subcloned to 0.8 cells/well. Once clones expressing the H3 receptor were identified by PCR analysis, assays (FLIPR or radioligand binding) were performed to confirm that the activated gene produced functional protein. The protein expression in the initial clones obtained from the RAGE library was increased by growth in the presence of methotrexate. Since the integrated RAGE vector contains the DHFR gene, such treatment selects for cells that have amplified the genetic locus containing the RAGE insert. Subclones obtained after methotrexate amplification were tested for functional activity in FLIPR assays to identify the clone that was most suitable for HTS. The final HT1080-Gqαi5 RAGE clone (RAGE-H3) expressing the human histamine H3 receptor was grown in alpha-modified MEM containing 10% fetal bovine serum, 3 μg/ml puromycin, 500 μg/ml hygromycin B, 3.2 μM methotrexate at 37° C. in 5% CO2/95% atmosphere.
RAGE-H3 cells (10^9) were washed twice with cold PBS, scraped off the plates, and centrifuged at 1000×g for 5 minutes. Cells were resuspended in ice-cold 10 mM Tris HCl, pH 7.4, containing 5 mM EDTA and protease inhibitor cocktail tablets (Roche Molecular Biochemicals). After incubating on ice for 10 min, the cells were homogenized with a dounce homogenizer or a polytron tissue grinder, and centrifuged at 1000×g for 10 min at 4° C. The resulting supernatant was centrifuged at 32,000×g for 30 min at 4° C. The membrane pellets were resuspended in 50 mM Tris HCl, pH 7.4, and stored at −80° C. until use. Protein concentration was determined by the Bradford method (Bio-Rad Laboratories, CA).
Binding assays were carried out in 96-well polypropylene plates in 50 mM Tris HCl, pH 7.4, containing 1 mM EDTA. Reaction mixtures contained 100 μl of membrane suspension, 50 μl of 4% DMSO, and 50 μl of increasing amounts of [^125I]iodoproxyfan (final concentration 0.0005-1.8 nM for human H3 receptor saturation binding assay). Nonspecific binding was defined by adding 10 μM clobenpropit to the reaction mixtures. […]

Row | Compound | Ki [nM]
1 | 3-Methyl-1-[4-(3-piperidin-1-yl-propoxy)-phenyl]-1,4,5,6-tetrahydro-cyclopentapyrazole [Example 59] | < 10
2 | 3-Phenyl-1-[4-(3-pyrrolidin-1-ylpropoxy)phenyl]-4,5,6,7-tetrahydro-1H-indazole [Example 43] | < 1000
3 | 3-Phenyl-1-[4-(3-pyrrolidin-1-ylpropoxy)phenyl]-4,5,6,7-tetrahydro-2H-indazole [Example 44] | < 100
4 | Cc1nn(-c2ccc(OCCCN3CCCC3)cc2)c2c1CC[C@@H]1CCCC[C@@H]21 (relative stereo) [Example 5, 3-Methyl-1-[4-(3-pyrrolidin-1-ylpropoxy)phenyl]-4,5,5a,6,7,8,9,9a-octahydro-1H-benzo[g]indazole] | < 1
5 | Cc1c2c(nn1-c1ccc(OCCCN3CCCC3)cc1)[C@H]1CCCC[C@@H]1CC2 (relative stereo) [Example 6, 3-Methyl-2-[4-(3-pyrrolidin-1-ylpropoxy)phenyl]-4,5,5a,6,7,8,9,9a-octahydro-2H-benzo[g]indazole] | < 10
6 | Cc1nn(-c2ccc(OCCCN3CCCC3)cc2)c2c1CCc1ccccc1-2 [Example 1, 3-Methyl-1-[4-(3-pyrrolidin-1-ylpropoxy)phenyl]-4,5-dihydro-1H-benzo[g]indazole] | < 10
7 | Cc1nn(-c2ccc(OCCCN3CCC[C@H]3C)cc2)c2c1CCc1ccccc1-2 [Example 2, 3-Methyl-1-{4-[3-(2R-methylpyrrolidin-1-yl)propoxy]phenyl}-4,5-dihydro-1H-benzo[g]indazole] | < 10
8 | Cc1nn(-c2ccc(OCCCN3CCOCC3)cc2)c2c1CCc1ccccc1-2 [Example 3, 3-Methyl-1-[4-(3-morpholin-1-ylpropoxy)phenyl]-4,5-dihydro-1H-benzo[g]indazole] | < 10
9 | FC(F)(F)c1cc(/C=C/c2ccccc2)n(-c2ccc(OCCCN3CCCC3)cc2)n1 [Example 4, 1-[4-(3-Pyrrolidin-1-ylpropoxy)phenyl]-5-styryl-3-trifluoromethyl-1H-pyrazole] | < 100
10 | COc1ccc2c(c1)-c1c(c(C)nn1-c1ccc(OCCCN3CCCC3)cc1)CC2 [Example 7, 8-Methoxy-3-methyl-1-[4-(3-pyrrolidin-1-ylpropoxy)phenyl]-4,5-dihydro-1H-benzo[g]indazole] | < 100
11 | Cc1cc(C(=O)NC2CCCCC2)n(-c2ccc(OC3CCN(C4CCCC4)CC3)cc2)n1 [Example 10, 2-[4-(1-Cyclopentyl-piperidin-4-yloxy)phenyl]-5-methyl-2H-pyrazole-3-carboxylic acid cyclohexylamide] | < 10
12 | Cc1cc(C(=O)NC2CCCCC2)n(-c2ccc(OC3CCN(C4CCCCC4)CC3)cc2)n1 [Example 11, 2-[4-(1-Cyclohexylpiperidin-4-yloxy)phenyl]-5-methyl-2H-pyrazole-3-carboxylic acid cyclohexylamide] | < 10
13 | Cc1cc(C(=O)NC2CCCCC2)n(-c2ccc(OC3CCN(C(C)C)CC3)cc2)n1 [Example 12, 2-[4-(1-Isopropylpiperidin-4-yloxy)phenyl]-5-methyl-2H-pyrazole-3-carboxylic acid cyclohexylamide] | < 10
14 | Cc1cc(C(=O)NC2CCCCC2)n(-c2ccc(OC3CCN(C4CCC4)CC3)cc2)n1 [Example 13, 2-[4-(1-Cyclobutylpiperidin-4-yloxy)phenyl]-5-methyl-2H-pyrazole-3-carboxylic acid cyclohexylamide] | < 10
15 | Cc1cc(CO)n(-c2ccc(OCCCN3CCCC3)cc2)n1 [Example 14, {5-Methyl-2-[4-(3-pyrrolidin-1-ylpropoxy)phenyl]-2H-pyrazol-3-yl}methanol] | < 10
16 | c1ccc2nn(-c3ccc(OCCCN4CCCC4)cc3)cc2c1 [Example 18, 2-[4-(3-Pyrrolidin-1-ylpropoxy)phenyl]-2H-indazole] | < 100
17 | c1ccc2c(c1)cnn2-c1ccc(OCCCN2CCCC2)cc1 [Example 20, 1-[4-(3-Pyrrolidin-1-ylpropoxy)phenyl]-1H-indazole] | < 10

Row | Compound | Ki [nM]
18 | CCc1cc(CC)n(-c2ccc(OCCCN3CCCC3)cc2)n1 [Example 21, 3,5-Diethyl-1-[4-(3-pyrrolidin-1-ylpropoxy)phenyl]-1H-pyrazole] | < 10
19 | CCc1cc(CC)n(-c2ccc(OCCCN3CCCCC3)cc2)n1 [Example 22, 3,5-Diethyl-1-[4-(3-piperidin-1-ylpropoxy)phenyl]-1H-pyrazole] | < 10
20 | CCc1cc(CC)n(-c2ccc(OCCCN3CCOCC3)cc2)n1 [Example 23, 3,5-Diethyl-1-[4-(3-morpholin-1-ylpropoxy)phenyl]-1H-pyrazole] | < 1000
21 | CC(C)c1cc(C(C)C)n(-c2ccc(OCCCN3CCCC3)cc2)n1 [Example 24, 3,5-Diisopropyl-1-[4-(3-pyrrolidin-1-yl-propoxy)-phenyl]-1H-pyrazole] | < 10
22 | CC(C)c1cc(C(C)C)n(-c2ccc(OCCCN3CCCCC3)cc2)n1 [Example 25, 3,5-Diisopropyl-1-[4-(3-piperidin-1-yl-propoxy)-phenyl]-1H-pyrazole] | < 10
23 | Cc1cc(C(C)(C)C)nn1-c1ccc(OCCCN2CCCC2)cc1 [Example 26, 3-tert-Butyl-5-methyl-1-[4-(3-pyrrolidin-1-ylpropoxy)-phenyl]-1H-pyrazole] | < 10
24 | Cc1cc(C(C)(C)C)nn1-c1ccc(OCCCN2CCCCC2)cc1 [Example 27, 3-tert-Butyl-5-methyl-1-[4-(3-piperidin-1-ylpropoxy)-phenyl]-1H-pyrazole] | < 10
25 | Cc1cc(CC(C)C)n(-c2ccc(OCCCN3CCCC3)cc2)n1 [Example 28, 5-Isobutyl-3-methyl-1-[4-(3-pyrrolidin-1-ylpropoxy)-phenyl]-1H-pyrazole] | < 100
26 | Cc1cc(CC(C)C)n(-c2ccc(OCCCN3CCCCC3)cc2)n1 [Example 29, 5-Isobutyl-3-methyl-1-[4-(3-piperidin-1-ylpropoxy)-phenyl]-1H-pyrazole] | < 100
27 | Cc1cc(CC(C)C)nn1-c1ccc(OCCCN2CCCCC2)cc1 [Example 30] | < 10
28 | Cc1cc(CC(C)C)nn1-c1ccc(OCCCN2CCCC2)cc1 [Example 31] | < 10
29 | CC(C)c1cc(C(C)C)n(-c2ccc(OC3CCN(C4CCC4)CC3)cc2)n1 [Example 32, 1-Cyclobutyl-4-[4-(3,5-diisopropylpyrazol-1-yl)phenoxy]piperidine] | < 10
30 | Cc1cc(C(C)(C)C)n(-c2ccc(OCCCN3CCCC3)cc2)n1 [Example 33, 5-tert-Butyl-3-methyl-1-[4-(3-pyrrolidin-1-ylpropoxy)-phenyl]-1H-pyrazole] | < 10
31 | Cc1cc(C(C)(C)C)n(-c2ccc(OCCCN3CCCCC3)cc2)n1 [Example 34, 5-tert-Butyl-3-methyl-1-[4-(3-piperidin-1-ylpropoxy)-phenyl]-1H-pyrazole] | < 100
32 | Cc1nn(-c2ccc(OCCCN3CCCC3)cc2)c(C)c1C [Example 36, 3,4,5-Trimethyl-1-[4-(3-pyrrolidin-1-ylpropoxy)phenyl]-1H-pyrazole] | < 10
33 | CCc1c(C)nn(-c2ccc(OCCCN3CCCC3)cc2)c1C [Example 37, 4-Ethyl-3,5-dimethyl-1-[4-(3-pyrrolidin-1-ylpropoxy)phenyl]-1H-pyrazole] | < 10
34 | CCCCc1c(C)nn(-c2ccc(OCCCN3CCCC3)cc2)c1C [Example 38, 4-Butyl-3,5-dimethyl-1-[4-(3-pyrrolidin-1-ylpropoxy)phenyl]-1H-pyrazole] | < 10
